Publication PMC8330100, “Similarities and differences in the localization, trafficking, and function of P-glycoprotein in MDR1-EGFP-transduced rat versus human brain capillary endothelial cell lines” (Fluids and Barriers of the CNS, 2021)

Legend:
[1] = target: T1, Pgp in RBE4-MDR1-EGFP cells (Homo sapiens, UniProt P08183); assay: Rhodamine 123 uptake/accumulation assay, RBE4-MDR1-EGFP cells; assay type: cell-based, rat; conditions: RBE4-MDR1-EGFP in the presence of doxycycline; tariquidar 0.5 µM
T1 construct: expressed in transfected cells; host or cells: RBE4 (rat BCEC line), lentiviral transduction, doxycycline-inducible
Procedure: Piet Borst (The Netherlands Cancer Institute, Amsterdam, The Netherlands) as template. The linker sequence in the vector fusing EGFP and MDR1 consists of 36 bp ([…]). hCMEC/D3-WT, RBE4-WT, and hCMEC/D3-MDR1-EGFP cell lines were cultivated as previously described. The same culture conditions were used for the newly prepared RBE4-MDR1-EGFP cell line. As described previously, hydrocortisone (1.4 µM) was added to the culture medium to enhance the expression and functionality of Pgp and transendothelial resistance. All endothelial cell lines were grown on rat-tail collagen I (60 µg/mL, Gibco) coated 100 mm cultures dishes or permeable membrane supports at 37 °C and 5% CO2. Pgp-EGFP protein expression in MDR1-EGFP transduced cells was induced by cell cultivation in medium containing […] doxycycline. Expression of Pgp-EGFP was regularly verified by observing the cells with an inverted fluorescence microscope. Doxycycline supplementation of the medium was maintained during the whole culturing period of Pgp-EGFP expressing cells. For experiments, hCMEC/D3 and RBE4 cells were seeded in a density of 50,000 cells/cm^2. Immortalized MDR1 transfected porcine kidney LLC-PK1 (LLC-MDR1) cells, which were used as a reference standard for vectorial transport experiments, were kindly provided by Prof. Piet Borst. […]

[2] = target: Pgp in LLC-MDR1 monolayers (Homo sapiens, UniProt P08183); conditions: Rho123 2 µM
[3] = test system: Pgp in primary rBCEC monolayers; assay: Concentration equilibrium transport assay (CETA), primary rBCEC monolayers; assay type: in vitro ADME, rat; conditions: Rho123 2 µM; primary rBCECs
Procedure: For these experiments, a concentration equilibrium transport assay (CETA) was used, which is more sensitive to identify Pgp substrates than conventional bidirectional (concentration gradient) transport assays. In the CETA, the drug is added to both (apical and basolateral) sides of the monolayer, so that the initial drug concentration is the same in both compartments, thereby minimizing the effect of passive diffusion across the cell monolayer.
Additionally, vectorial drug transport across RBE4-MDR1-EGFP, hCMEC/D3-MDR1-EGFP, LLC-MDR1, and primary rBCEC monolayers was studied using 2 µM Rho123 as a fluorescent Pgp substrate essentially following the same protocol as described for [^3H]dLop. Transport was measured using a FLUOstar OPTIMA fluorescence reader (ex.: 485 nm, em.: 520 nm; BMG Labtech), analyzing samples from basolateral and apical compartments collected at the various time points.

Pgp in RBE4-WT cells = assay: Rhodamine 123 uptake/accumulation assay, RBE4-WT cells; assay type: cell-based, rat
Procedure: The functionality of Pgp in RBE4-WT, RBE4-MDR1-EGFP, hCMEC/D3-WT, hCMEC/D3-MDR1-EGFP cells, and primary rBCECs was analyzed by measuring the uptake of the fluorescent Pgp substrate Rho123 (Sigma-Aldrich). Cells were grown on 6-well plates and cultured for seven days in the presence or absence of doxycycline (1 µg/mL, Biochrom). […] Afterward, Rho123 (5 µM, dissolved in ethanol) was added and cells were incubated for another two hours. Rho123 transport was terminated by washing the cells twice with ice-cold PBS. Intracellular Rho123 concentration was determined by cell lysis in standard lysis buffer (25 mM Tris, 50 mM NaCl, 0.5% (w/v) sodium deoxycholate, 0.5% (w/v) Triton X-100) and measurement of fluorescence intensity with the FLUOstar OPTIMA (ex.: 485 nm, em.: 520 nm; BMG Labtech). Protein concentrations were determined using a BCA assay kit (Thermo Fisher Scientific). Rho123 uptake was obtained for each condition in triplicates and calculated as absolute fluorescence per mg protein. Additionally, Pgp functionality was expressed as multidrug resistance activity factor (MAF) as described by Huber et al.. This factor describes Pgp efflux activity based on differences in intracellular Rho123 accumulation in cells after Pgp inhibition compared to cells with active Pgp-mediated efflux. Thus, higher MAF values correlate with increased Pgp activity. For better comparison, differences in Rho123 accumulation are normalized to intracellular Rho123 levels in inhibitor-treated cells. MAF values for Pgp were calculated according to Huber et al. 2012 utilizing the following equation: MAF (%) = 100 · (MFITQ − MFI0)/(MFITQ) where MFITQ and MFI0 represent the mean fluorescence intensity of intracellular Rho123 in tariquidar (TQ)-treated and non-treated cells, respectively.

`COC(=O)c1ccccc1-c1c2ccc(=N)cc-2oc2cc(N)ccc12` [Rho123, rhodamine 123] was tested, and the “increase of Rho123 efflux (accumulation in absence vs presence of tariquidar)” value [1] was ~ 7 fold, the “vectorial transport in CETA” value [2] was “significant vectorial transport was observed” and the “vectorial transport in CETA (apical vs basolateral concentrations)” value [3] was “significantly higher in the apical vs. basolateral chambers”. For the same compound, the “intracellular Rho123 accumulation” value (Pgp in RBE4-WT cells; Rho123 5 µM, 2 h, without tariquidar) was 86,513 ± 2021 absolute fluorescence per mg p and the “multidrug resistance activity factor (MAF) from intracellular Rho123 accumulation” value (Pgp in RBE4-WT cells; with vs without tariquidar 0.5 µM) was 37.5% ± 4.2.
